In one test the test system is BSC-1 cells. Put plainly: Time of contact with cells required to commit them to accelerated growth (washout, count at four days). It counts as cell-based, African green monkey. The following applies: for exposure time sufficient for maximal growth stimulation (commitment time): peptide then washed off, cells counted four days later. The procedure:
Confluent monolayers of BSC-1 cells are prepared as herein and exposed to the 14-Ser peptide (0.5 μg/ml) for different amounts of time (0 to 30 minutes). At the end of the defined exposure period, culture medium containing the mitogen was aspirated, the monolayer was rinsed to remove non-adherent peptide, and fresh medium was added. Four days later the number of cells in the culture was counted.
In these experiments a solution containing the peptide of interest was added to the cell monolayer; culture medium was then aspirated at a specified time thereafter. Then fresh medium without the peptide was added and the number of cells was counted four days later.

Test [1] relates to monkey kidney epithelial cells of the BSC-1 line. Put plainly: Growth-promoting (mitogenic) activity: number of cells in BSC-1 cultures counted four days after addition. The following applies: for EC50: peptide alone, BSC-1 cells, 4 days in culture, read-out: Growth-Stimulation K½. It counts as cell-based, African green monkey. The procedure: For the assay, cells were detached from the dish with a solution of trypsin and an aliquot was counted in a hemocytometer.
Nontransformed monkey kidney epithelial cells of the BSC-1 line were grown to confluence in Dulbecco's modified Eagle's medium containing 1% calf serum and […] in 55-mm culture dishes at 38° C. in a CO2 incubator. When cells achieved a density of about 10^6 per dish, the spent medium was removed and replaced with fresh medium containing 0.5% calf serum and the 14-amino acid peptide (0.5 μg/ml). Additions of each of the mitogenic signals at maximal concentration were made to the culture medium. Four days later the number of cells in each culture was counted in a hemocytometer. Values obtained were the mean of 3 separate cultures.
Nontransformed monkey kidney epithelial cells of the BSC-1 line were grown to confluence in Dulbecco's modified Eagle's medium containing 1% calf serum and 1.6 μM biotin at 38° C. in a CO2 incubator. When cells achieved a density of about 10^6 per dish, the spent medium was removed and replaced with fresh medium containing 0.5% calf serum and different amounts of the two peptides. Four days later the number of cells in each culture was counted. Each value is the mean of 3 separate cultures.
To delineate the sequence of the smallest peptide that could stimulate renal cell growth, synthetic peptides of different lengths were prepared (see below), and purified by reversed-phase HPLC on a C18 column.
The peptide of interest was then purified on a reversed-phase C18 column HPLC as described herein using a gradient of 1-80% acetonitrile in 0.1% trifluroacetic acid (TFA). The purified peptide was then lyophilized to remove the acetonitrile and TFA and the lyophilized powder was weighed, dissolved in buffer and added to the culture medium to measure its effect on the growth of monkey kidney epithelial cells as described herein. […] A value termed the K1/2, was used.

Take `NC(=O)CC[C@@H]1NC(=O)[C@H](Cc2ccccc2)NC(=O)[C@H](Cc2ccc(O)cc2)NC(=O)[C@@H](N)CSSC[C@@H](C(=O)N2CCC[C@H]2C(=O)N[C@@H](CCCN=C(N)N)C(=O)NCC(N)=O)NC(=O)[C@H](CC(N)=O)NC1=O` [vasopressin, reference compound]: in the test on BSC-1 cells, the “exposure time sufficient for maximal growth stimulation (commitment time)” value (shortened to “exposure time sufficient”) is 2 min. Also, the “stimulation of growth (increase in cell number compared to control at four days)” value in test [1] (agent alone at maximal mitogenic concentration (14-Ser 0.5 μg/ml; EGF, IGF-I 50 ng/ml; acidic FGF 100 pg/ml; basic FGF 1,000 pg/ml; vasopressin 75 pg/ml; K 10.4 mM; Na 180 mM)) is given as 14%. For the same compound, the “stimulation of growth in the presence of the 14-Ser peptide” value in test [1] (mitogenic signal at maximal concentration plus 14-Ser peptide 0.5 μg/ml, four days) was 36%.

Take “AQPYPQGNHEAQPYPQGNHEAQPYPQGNHEAQPYPQGNHE”: the “exposure time sufficient” value in the test with BSC-1 cells is listed as “behaved similarly”. Further, the EC50 in test [1] is 7 nM.

On to YPEGNH, for which the “exposure time for maximal mitogenic effect after keratan sulfate pretreatment” value in the test with BSC-1 cells (cells exposed to keratan sulfate 2 μg/ml for 5 minutes before peptide) worked out at 1.5 min. Besides, in the test on BSC-1 cells, the “exposure time sufficient” value is 3 min. Further, the EC50 in test [1] worked out at 301 nM.

These data come from US7550438B2, “Methods for production of growth-promoting proteins and peptides for kidney epithelial cells” (The University of Chicago, priority 1997, dated 2009).
